In US10597388B2, “Pyridazinone herbicides” (FMC CORPORATION, priority 2014, dated 2020):

Tests used:
Format in all cases: in vivo
[1] = tested on: beggarticks (hairy beggarticks, Bidens pilosa); test: Test E greenhouse herbicide test, pre- and postemergence
Excerpt: (§1) Seeds of plant species selected from corn (Zea mays), soybean (Glycine max), velvetleaf (Abutilon theophrasti), lambsquarters (Chenopodium album), wild poinsettia (Euphorbia heterophylla), pigweed, palmer (palmer pigweed, Amaranthus palmeri), waterhemp (common waterhemp, Amaranthus rudis), surinam grass (Brachiaria decumbens), crabgrass, large (large crabgrass, Digitaria sanguinalis), crabgrass, Brazilian (Brazilian crabgrass, Digitaria horizontalis), panicum, fall (fall panicum, Panicum dichotomiflorum), foxtail, giant (giant foxtail, Setaria faberii), foxtail, green (green foxtail, Setaria viridis), goosegrass (Eleusine indica), johnsongrass (Sorghum halepense), ragweed (common ragweed, Ambrosia elatior), barnyardgrass (Echinochloa crus-galli), sandbur (southem sandbur, Cenchrus echinatus), arrowleaf sida (Sida rhombifolia), Italian ryegrass (Lolium multiflorum), dayflower (Virginia (VA) dayflower, Commelina virginica), field bindweed (Convolvulus arvensis), momingglory (Ipomoea coccinea), nightshade (eastern black nightshade, Solanum ptycanthum), kochia (Kochia scoparia), nutsedge, yellow (yellow nutsedge, Cyperus esculentus), horseweed (Conyza canadensis), and beggarticks (hairy beggarticks, Bidens pilosa), were planted into a silt loam soil and treated preemergence with test chemicals formulated in a non-phytotoxic solvent mixture which included a surfactant.
(§2) At the same time, plants from these crop and weed species and also waterhemp_RES1, (ALS & Triazine resistant common waterhemp, Amaranthus rudis), and waterhemp_RES2, (ALS & HPPD resistant common waterhemp, Amaranthus rudis) were planted in pots containing Redi-Earth® planting medium (Scotts Company, 14111 Scottslawn Road, Marysville, Ohio 43041) comprising spaghnum peat moss, vermiculite, wetting agent and starter nutrients were treated with postemergence applications of test chemicals formulated in the same manner. Plants ranged in height from 2 to 18 cm for postemergence treatments (1- to 4-leaf stage). Treated plants and controls were maintained in a greenhouse for 14 to 21 d, after which time all species were compared to controls and visually evaluated. Plant response ratings, summarized in Table E, are based on a scale of 0 to 100 where 0 is no effect and 100 is complete control. A dash (-) response means no test result.

[2] = tested on: crabgrass, Brazilian (Brazilian crabgrass, Digitaria horizontalis); test: as above
Excerpt: as §1, §2

[3] = tested on: crabgrass, large (large crabgrass, Digitaria sanguinalis); test: as above; details: Preemergence
Excerpt: as §1, §2

[4] = tested on: field bindweed (Convolvulus arvensis); test: as above
Excerpt: as §1, §2

[5] = tested on: foxtail, giant (giant foxtail, Setaria faberii); test: as above; details: Preemergence
Excerpt: as §1, §2

[6] = tested on: goosegrass (Eleusine indica); test: as above; details: Preemergence
Excerpt: as §1, §2

[7] = tested on: horseweed (Conyza canadensis); test: as above
Excerpt: as §1, §2

[8] = tested on: kochia (Kochia scoparia); test: as above
Excerpt: as §1, §2

[9] = tested on: panicum, fall (fall panicum, Panicum dichotomiflorum); test: as above
Excerpt: as §1, §2

[10] = tested on: ragweed (common ragweed, Ambrosia elatior); test: as above
Excerpt: as §1, §2

[11] = tested on: sandbur (southem sandbur, Cenchrus echinatus); test: as above
Excerpt: as §1, §2

[12] = tested on: surinam grass (Brachiaria decumbens); test: as above; details: Preemergence
Excerpt: as §1, §2

[13] = tested on: waterhemp (common waterhemp, Amaranthus rudis); test: as above
Excerpt: as §1, §2

[14] = tested on: waterhemp_RES1 (ALS & Triazine resistant common waterhemp, Amaranthus rudis); test: Test E greenhouse herbicide test, postemergence
In short: (§3)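 Postemergence spray on potted plants, 1–4 leaves, 2–18 cm; greenhouse 14–21 d; visual rating vs controls, 0 (no effect) to 100 (complete control).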

[15] = tested on: waterhemp_RES2 (ALS & HPPD resistant common waterhemp, Amaranthus rudis); test: Test E greenhouse herbicide test, postemergence
In short: as §3

[16] = 62 g ai/ha, Postemergence, scale 0 to 100 (0 no effect, 100 complete control)
[17] = 62 g ai/ha, Preemergence, scale 0 to 100 (0 no effect, 100 complete control)
[18] = 125 g ai/ha, Postemergence, scale 0 to 100 (0 no effect, 100 complete control)
[19] = 250 g ai/ha, Postemergence, scale 0 to 100 (0 no effect, 100 complete control)
[20] = Postemergence, 31 g ai/ha, visual, scale 0 no effect to 100 complete control
[21] = Preemergence, 31 g ai/ha, scale 0 to 100, 0 no effect, 100 complete control
[22] = Preemergence, 125 g ai/ha, visual, scale 0 no effect to 100 complete control
[23] = Preemergence, 250 g ai/ha, visual, scale 0 no effect to 100 complete control
[24] = 62 g ai/ha, scale 0 to 100 (0 no effect, 100 complete control)
[25] = 31 g ai/ha, scale 0 to 100, 0 no effect, 100 complete control
[26] = 125 g ai/ha, visual, scale 0 no effect to 100 complete control
[27] = 250 g ai/ha, visual, scale 0 no effect to 100 complete control
[28] = 125 g ai/ha, Preemergence, scale 0 to 100 (0 no effect, 100 complete control)
[29] = 125 g ai/ha, scale 0 to 100 (0 no effect, 100 complete control)
[30] = 31 g ai/ha, visual, scale 0 no effect to 100 complete control
[31] = 250 g ai/ha, scale 0 to 100 (0 no effect, 100 complete control)

## Cn1nc(Br)c(O)c(-c2cccc3ccccc23)c1=O [Compound 20]
[1]; [16]
  Plant response rating, Beggarticks: 95
[1]; [17]
  Plant response rating, Beggarticks: 85
[1]; [18]
  Plant response rating, Beggarticks: 98
[1]; [19]
  Plant response rating, Beggarticks: 100
[1]; [20]
  Plant response rating, Beggarticks: 85
[1]; [21]
  Plant response rating, Beggarticks: 20
[1]; [22]
  Plant response rating, Beggarticks: 95
[1]; [23]
  Plant response rating, Beggarticks: 98
[2]; [16]
  Plant response rating, Crabgrass, Brazil: 20
[2]; [17]
  Plant response rating, Crabgrass, Brazil: 60
[2]; [18]
  Plant response rating, Crabgrass, Brazil: 20
[2]; [19]
  Plant response rating, Crabgrass, Brazil: 50
[2]; [20]
  Plant response rating, Crabgrass, Brazil: 10
[2]; [21]
  Plant response rating, Crabgrass, Brazil: 40
[2]; [22]
  Plant response rating, Crabgrass, Brazil: 70
[2]; [23]
  Plant response rating, Crabgrass, Brazil: 90
[3]; [24]
  Plant response rating, Crabgrass, Large: 35
[3]; [25]
  Plant response rating, Crabgrass, Large: 30
[3]; [26]
  Plant response rating, Crabgrass, Large: 35
[3]; [27]
  Plant response rating, Crabgrass, Large: 30
[4]; [16]
  Plant response rating, Field Bindweed: 85
[4]; [17]
  Plant response rating, Field Bindweed: 65
[4]; [18]
  Plant response rating, Field Bindweed: 90
[4]; [19]
  Plant response rating, Field Bindweed: 95
[4]; [20]
  Plant response rating, Field Bindweed: 75
[4]; [21]
  Plant response rating, Field Bindweed: 35
[4]; [22]
  Plant response rating, Field Bindweed: 85
[4]; [23]
  Plant response rating, Field Bindweed: 95
[5]; [24]
  Plant response rating, Foxtail, Giant: 20
[5]; [25]
  Plant response rating, Foxtail, Giant: 5
[5]; [26]
  Plant response rating, Foxtail, Giant: 75
[5]; [27]
  Plant response rating, Foxtail, Giant: 90
[6]; [24]
  Plant response rating, Goosegrass: 10
[6]; [25]
  Plant response rating, Goosegrass: 20
[6]; [26]
  Plant response rating, Goosegrass: 50
[6]; [27]
  Plant response rating, Goosegrass: 85
[7]; [16]
  Plant response rating, Horseweed: 80
[7]; [17]
  Plant response rating, Horseweed: 100
[7]; [18]
  Plant response rating, Horseweed: 70
[7]; [19]
  Plant response rating, Horseweed: 85
[7]; [20]
  Plant response rating, Horseweed: 70
[7]; [21]
  Plant response rating, Horseweed: 100
[7]; [22]
  Plant response rating, Horseweed: 100
[7]; [23]
  Plant response rating, Horseweed: 100
[8]; [16]
  Plant response rating, Kochia: 65
[8]; [17]
  Plant response rating, Kochia: 90
[8]; [18]
  Plant response rating, Kochia: 75
[8]; [19]
  Plant response rating, Kochia: 90
[8]; [20]
  Plant response rating, Kochia: 60
[8]; [21]
  Plant response rating, Kochia: 0
[8]; [22]
  Plant response rating, Kochia: 98
[8]; [23]
  Plant response rating, Kochia: 100
[9]; [16]
  Plant response rating, Panicum, Fall: 15
[9]; [17]
  Plant response rating, Panicum, Fall: 35
[9]; [18]
  Plant response rating, Panicum, Fall: 30
[9]; [28]
  Plant response rating, Panicum, Fall: 65
[9]; [19]
  Plant response rating, Panicum, Fall: 50
[9]; [20]
  Plant response rating, Panicum, Fall: 0
[9]; [21]
  Plant response rating, Panicum, Fall: 0
[9]; [23]
  Plant response rating, Panicum, Fall: 98
[10]; [16]
  Plant response rating, Ragweed: 75
[10]; [17]
  Plant response rating, Ragweed: 65
[10]; [18]
  Plant response rating, Ragweed: 85
[10]; [28]
  Plant response rating, Ragweed: 70
[10]; [19]
  Plant response rating, Ragweed: 80
[10]; [20]
  Plant response rating, Ragweed: 65
[10]; [21]
  Plant response rating, Ragweed: 30
[10]; [23]
  Plant response rating, Ragweed: 98
[11]; [16]
  Plant response rating, Sandbur: 20
[11]; [17]
  Plant response rating, Sandbur: 0
[11]; [18]
  Plant response rating, Sandbur: 30
[11]; [28]
  Plant response rating, Sandbur: 65
[11]; [19]
  Plant response rating, Sandbur: 40
[11]; [20]
  Plant response rating, Sandbur: 15
[11]; [21]
  Plant response rating, Sandbur: 0
[11]; [23]
  Plant response rating, Sandbur: 75
[12]; [24]
  Plant response rating, Surinam Grass: 65
[12]; [29]
  Plant response rating, Surinam Grass: 85
[12]; [25]
  Plant response rating, Surinam Grass: 10
[12]; [27]
  Plant response rating, Surinam Grass: 90
[13]; [16]
  Plant response rating, Waterhemp: 75
[13]; [17]
  Plant response rating, Waterhemp: 65
[13]; [18]
  Plant response rating, Waterhemp: 80
[13]; [28]
  Plant response rating, Waterhemp: 85
[13]; [19]
  Plant response rating, Waterhemp: 85
[13]; [20]
  Plant response rating, Waterhemp: 70
[13]; [21]
  Plant response rating, Waterhemp: 0
[13]; [23]
  Plant response rating, Waterhemp: 100
[14]; [30]
  Plant response rating, Waterhemp_RES1: 60
[14]; [24]
  Plant response rating, Waterhemp_RES1: 70
[14]; [29]
  Plant response rating, Waterhemp_RES1: 80
[14]; [31]
  Plant response rating, Waterhemp_RES1: 80
[15]; [30]
  Plant response rating, Waterhemp_RES2: 50
[15]; [24]
  Plant response rating, Waterhemp_RES2: 50
[15]; [29]
  Plant response rating, Waterhemp_RES2: 50
[15]; [31]
  Plant response rating, Waterhemp_RES2: 60
